Measurements taken from patent publication US7524823B2, “Macrolides” (Basilea Pharmaceutica AG, priority 2005, dated 2009).
Converted amounts (≈) assume the structure as drawn. Where two headings read alike, the source gives them in different places.

Experiments:
Assay type in all cases: cell-based
[1] = test system: Staphylococcus aureus 1086; test: MIC by broth microdilution (CAMHB, NCCLS); settings: code B: Staphylococcus aureus 1086
Description: (§1) MIC values for non-anaerobes were obtained by broth microdilution using CAMHB (BBL) according to NCCLS guidelines (National Committee for Clinical Laboratory Standards. Methods for dilution antimicrobial susceptibility tests for bacteria that grow aerobically, 5th ed. Approved standard M7-A6. NCCLS, Wayne, Pa., 2003). Drugs were dissolved in DMSO prior to dispensing into 96-well microtitre plates; the concentration of DMSO in assay wells never exceeded 2% (v/v). CAMHB was supplemented with 5% (v/v) horse serum (Sigma, cat. no. H-1270) in lieu of laked horse blood for cultivation of Streptococcus pneumoniae, and with 5% (v/v) Fildes enrichment (BBL, cat. no. 220810) supernate in lieu of Haemophilus Test Medium and additives for cultivation of Haemophilus influenzae (Pankuch G A, Hoellman D B, Lin G, Bajaksouzian S, Jacobs M R, Appelbaum P C. Activity of HMR 3647 compared to those of five agents against Haemophilus influenzae and Moraxella catarrhalis by MIC determination and time-kill assay. Antimicrob. Agents Chemother. November 1998; 42(11): 3032-4). Activities expressed as the minimal inhibitory concentrations (MICs) (μg/ml) are given in the following Table 3, and the microorganisms used for testing are listed in Table 2 below.

[2] = test system: Escherichia coli ATCC 25922; test: MIC by broth microdilution (CAMHB, NCCLS); settings: code C: Escherichia coli ATCC 25922
Description: as §1

[3] = test system: Staphylococcus aureus ATCC 29213; test: MIC by broth microdilution (CAMHB, NCCLS); settings: code A: Staphylococcus aureus ATCC 29213
Description: as §1

[4] = test system: Streptococcus pneumoniae Tupelo; test: MIC by broth microdilution (CAMHB + 5% horse serum, NCCLS); settings: code F: Streptococcus pneumoniae Tupelo
Description: as §1

[5] = test system: Streptococcus pneumoniae 1/1; test: as above; settings: code D: Streptococcus pneumoniae 1/1
Description: as §1

[6] = test system: Streptococcus pneumoniae SL199T; test: as above; settings: code E: Streptococcus pneumoniae SL199T
Description: as §1

[7] = test system: Haemophilus influenzae 12214; test: MIC by broth microdilution (CAMHB + 5% Fildes enrichment, NCCLS)
Description: as §1

[8] = test system: Haemophilus influenzae QK50; test: as above
Description: as §1

[9] = test system: Propionibacterium acnes SW101T; test: MIC by anaerobic broth microdilution (WCB, NCCLS); settings: code K: Propionibacterium acnes SW101T, 35-37° C., 48 h
Description: (§2) MIC values towards strains of propionibacteria were obtained by broth microdilution using WCB (Anaerobe Broth MIC, Difco) according to NCCLS guidelines (National Committee for Clinical Laboratory Standards. Methods for anti-microbial susceptibility testing of anaerobic bacteria, 5th ed.; approved standard. NCCLS publication no. M11-A5. NCCLS, Wayne, Pa., 2001). Microtitre plates were loaded into 7-L GENbox anaerobic incubation jars (BioMérieux, cat. no. 96 128) fitted with anaerobic atmosphere generators (BioMérieux, cat. no. 96 124) and a Dry Anaerobic Indicator Strip (BBL, cat. no. 271051). Under these conditions, an O2 concentration <0.1% was achieved by 2.5 h, and a CO2 concentration >15% by 24 h. MIC values were read after incubation at 35-37° C. for 48 h (Table 3).

[10] = test system: Propionibacterium acnes EG7NS; test: MIC by anaerobic broth microdilution (WCB, NCCLS); settings: 48 h
Description: as §2

Human neutrophils = test: Modulation of neutrophil elastase production; settings: test compound 50 μM; fMLP 0.1 μM, cytochalasin B 5 mg/L; blood from 3 donors
Text: The neutrophil granulocyte is a key element of the inflammatory process. The neutrophils migrate to the site of inflammation and can be activated to release toxic products, including proteolytic enzymes such as elastase. […] Elastase is a major secreted product of activated neutrophils and is a major contributor to the destruction of tissue in inflammatory disease. Several bioassays based on the repression of secretion of elastase, have been described and used for the detection of anti-inflammatory products (Johansson, […]. Nat. Prod. 65: 32-41). […] The neutrophils are activated by addition of the bacterial product N-formyl methionyl-leucyl-phenylalanine (fMLP) and cytochalasin B, a stimulator of secretion. The amount of elastase secreted is determined by measuring the reaction of elastase with the chromogenic substrate succinyl-alanyl-alanyl-valyl-nitroanilide ([…]), which generates 4-nitroaniline after cleavage by elastase. […] Human neutrophils are isolated by applying whole heparinized blood to a Histopaque column and collecting the granulocytes by centrifugation. […] The total volume of the reaction mixture is 0.8 mL and concentrations specified are the final concentrations in the mixture. […] Neutrophil preparations from blood from 3 different donors were used in parallel. All samples were measured in duplicate. Results are given as % repression of activation of neutrophils in the following Table 5.

[11] = code G: Haemophilus influenzae 12214, read-out: MIC
[12] = code H: Haemophilus influenzae QK50, read-out: MIC
[13] = Cutibacterium acnes, read-out: MIC
[14] = Cutibacterium acnes, code I: Propionibacterium acnes EG7NS, anaerobic, 35-37° C., read-out: MIC
[15] = code G: Haemophilus influenzae 12214
[16] = code H: Haemophilus influenzae QK50
[17] = code I: Propionibacterium acnes EG7NS, anaerobic, 35-37° C.

Row | SMILES | MIC ([1]; read-out: MIC) | MIC ([2]; ATCC25922, read-out: MIC) | MIC ([3]; ATCC29213, read-out: MIC) | MIC ([4]; read-out: MIC) | MIC ([5]; read-out: MIC) | MIC ([6]; read-out: MIC) | MIC [9, 13] | Average repression of activation (%) (Human neutrophils) | MIC [1] | MIC [2] | MIC [3] | MIC [4] | MIC [5] | MIC [6] | MIC [7, 15] | MIC [8, 16] | MIC [9] | MIC [10, 17] | also measured
1 | CC[C@H]1OC(=O)[C@H](C)[C@@H](O[C@H]2C[C@@](C)(OC)[C@@H](O)[C@H](C)O2)[C@H](C)[C@@H](O[C@@H]2O[C@H](C)C[C@H](N(C)C)[C@H]2O)[C@](C)(OC)C[C@@H](C)C(=O)[C@H](C)[C@H]2[C@H](SCCn3cnc4c(N)ncnc43)C(=O)O[C@@]21C [Example 1, (3S, 3aR, 4R, 6R, 8R, 9R, 10S, 11S, 12R, 15R, 15aS)-3-[[2-[6-amino-9H-purin-9-yl]ethyl]thio]-11-[[2,6-dideoxy-3-C-methyl-3-O-methyl-α-L-ribo-hexopyranosyl]oxy]-15-ethyldecahydro-8-methoxy-4,6,8,10,12,15a-hexamethyl-9-[[3,4,6-trideoxy-3-(dimethylamino)-β-D-xylo-hexopyranosyl]oxy]-2H-furo [2,3-c]oxacyclotetradecin-2,5,13 (3H,6H)-trione] | ≥ 32 µg/mL | ≥ 32 µg/mL | 1 µg/mL (≈ 1.04 µM) | 0.5 µg/mL | ≤ 0.06 µg/mL | 0.125 µg/mL | 1 µg/mL (≈ 1.04 µM) | 19 ± 0.6% | – | – | – | – | – | – | – | – | – | – | MIC [7, 11]: 1 µg/mL; MIC [8, 12]: 0.5 µg/mL; MIC [10, 14]: ≤ 0.06 µg/mL
2 | CC[C@H]1OC(=O)[C@H](C)[C@@H](O[C@H]2C[C@@](C)(OC)[C@@H](O)[C@H](C)O2)[C@H](C)[C@@H](O[C@@H]2O[C@H](C)C[C@H](N(C)C)[C@H]2O)[C@](C)(OC)C[C@@H](C)C(=O)[C@H](C)[C@H]2[C@H](SCCn3cnc4c(N)nc(N)nc43)C(=O)O[C@@]21C [Example 11] | – | – | – | – | – | – | – | 20 ± 0.97% | >=32 μg/ml | >=32 μg/ml | 8 µg/mL (≈ 8.16 µM) | 1 µg/mL | <=0.06 μg/ml | 0.125 µg/mL | 2 µg/mL | 2 µg/mL | 2 µg/mL (≈ 2.04 µM) | <=0.06 μg/ml | –
3 | CC[C@H]1OC(=O)[C@H](C)[C@@H](O[C@H]2C[C@@](C)(OC)[C@@H](O)[C@H](C)O2)[C@H](C)[C@@H](O[C@@H]2O[C@H](C)C[C@H](N(C)C)[C@H]2O)[C@](C)(OC)C[C@@H](C)C(=O)[C@H](C)[C@H]2[C@H](SCCn3cnc4cccnc43)C(=O)O[C@@]21C [Example 4, (3S, 3aR, 4R, 6R, 8R, 9R, 10S, 11S, 12R, 15R, 15aS)-11-[[2,6-dideoxy-3-C-methyl-3-O-methyl-α-L-ribo-hexopyranosyl]oxy]-15-ethyldecahydro-8-methoxy-4,6,8,10,12,15a-hexamethyl-3-[[2-[3H-imidazo[4,5-b]pyridin-3-yl]ethyl]thio]-9-[[3,4,6-trideoxy-3-(dimethylamino)-β-D-xylo-hexopyranosyl]oxy]-2H-furo [2,3-c] oxacyclotetradecin-2,5,13 (3H,6H)-trione] | ≥ 32 µg/mL | 32 µg/mL (≈ 33.7 µM) | 1 µg/mL (≈ 1.05 µM) | 0.5 µg/mL | ≤ 0.06 µg/mL | 0.5 µg/mL | 4 µg/mL (≈ 4.21 µM) | 31 ± 2.4% | – | – | – | – | – | – | – | – | – | – | MIC ([7]; Haemophilus influenzae, 12214): 2 µg/mL; MIC ([8]; Haemophilus influenzae, QK50): 2 µg/mL; MIC [10, 14]: 0.125 µg/mL (≈ 0.132 µM)
4 | CC[C@H]1OC(=O)[C@H](C)[C@@H](O[C@H]2C[C@@](C)(OC)[C@@H](O)[C@H](C)O2)[C@H](C)[C@@H](O[C@@H]2O[C@H](C)C[C@H](N(C)C)[C@H]2O)[C@](C)(O)C[C@@H](C)C(=O)[C@H](C)[C@@H](O)[C@]1(C)O [Erythromycin, reference compound] | > 32 µg/mL | > 32 µg/mL | 0.5 µg/mL (≈ 0.681 µM) | 8 µg/mL | ≤ 0.06 µg/mL | > 32 µg/mL | > 32 µg/mL | 5 ± 0.30% | – | – | – | – | – | – | – | – | – | – | MIC [7, 11]: 4 µg/mL; MIC [8, 12]: 2 µg/mL; MIC ([10]; Cutibacterium acnes, EG7NS): 0.125 µg/mL (≈ 0.17 µM)
5 | CC[C@H]1OC(=O)[C@H](C)[C@@H](O[C@H]2C[C@@](C)(OC)[C@@H](O)[C@H](C)O2)[C@H](C)[C@@H](O[C@@H]2O[C@H](C)C[C@H](N(C)C)[C@H]2O)[C@](C)(OC)C[C@@H](C)C(=O)[C@H](C)[C@H]2[C@H](SCC(=O)Nc3ccc(F)cc3F)C(=O)O[C@@]21C [Example 23] | – | – | – | – | – | – | – | – | 32 µg/mL (≈ 32.9 µM) | >32 µg/mL | 2 µg/mL (≈ 2.06 µM) | 2 µg/mL | <=0.06 μg/ml | 2 µg/mL | 4 µg/mL | 4 µg/mL | 32 µg/mL (≈ 32.9 µM) | <=0.06 μg/ml | –
6 | CC[C@H]1OC(=O)[C@H](C)[C@@H](O[C@H]2C[C@@](C)(OC)[C@@H](O)[C@H](C)O2)[C@H](C)[C@@H](O[C@@H]2O[C@H](C)C[C@H](N(C)C)[C@H]2O)[C@](C)(OC)C[C@@H](C)C(=O)[C@H](C)[C@H]2[C@H](SCCn3cc(C)c(=O)[nH]c3=O)C(=O)O[C@@]21C [Example 21] | – | – | – | – | – | – | – | – | >32 µg/mL | >32 µg/mL | 2 µg/mL (≈ 2.09 µM) | 2 µg/mL | <=0.06 μg/ml | 0.5 µg/mL | 4 µg/mL | 4 µg/mL | 4 µg/mL (≈ 4.18 µM) | <=0.06 μg/ml | –
7 | CC[C@H]1OC(=O)[C@H](C)[C@@H](O[C@H]2C[C@@](C)(OC)[C@@H](O)[C@H](C)O2)[C@H](C)[C@@H](O[C@@H]2O[C@H](C)C[C@H](N(C)C)[C@H]2O)[C@](C)(OC)C[C@@H](C)C(=O)[C@H](C)[C@H]2[C@H](SCCn3ncc4c(N)ncnc43)C(=O)O[C@@]21C [Example 13] | – | – | – | – | – | – | – | – | 16 µg/mL (≈ 16.6 µM) | >=32 μg/ml | 2 µg/mL (≈ 2.07 µM) | 0.25 µg/mL | <=0.06 μg/ml | 0.125 µg/mL | 4 µg/mL | 4 µg/mL | 2 µg/mL (≈ 2.07 µM) | <=0.06 μg/ml | –
